Measured values from patent US10800791B2, “Triazole ACC inhibitors and uses thereof” (Gilead Apollo, LLC, priority 2015, dated 2020).
pIC50: −log10 of the molar value. Converted amounts (≈) assume the structure as drawn. Where two headings read alike, the source gives them in different places.

Columns and labels:
[1] = system: Fusarium virguliforme (Fv); assay: Growth inhibition assay of fungal pathogens, Fv; assay type: cell-based; details: 48 h
Summary of the method: (§1)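 Read-out: OD600 plus visual rating at 24 and 48 h, blank (media + 2% DMSO) subtracted. Percent inhibition was derived at 48 h versus the 2% DMSO control. Spores were grown in 17% V8 broth with compound at 50/10/2 or 2/0.4/0.08 ppm final.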

C. parapsilosis = assay: Antifungal Activity Assay (broth microtiter MIC), C. parapsilosis; assay type: cell-based, Candida parapsilosis; details: Lodderomyces parapsilosis, ATCC22019, 48 h
Summary of the method: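 MICs were scored by eye at 48 h relative to the growth control. Plates followed CLSI M27-A3, with Candida suspensions in RPMI 1640+MOPS giving a final 2.5×10^3 CFU/mL; the colonies came from Sabouraud agar grown overnight at 35 °C.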

[2] = system: Phytophthora capsici (Pc); assay: Growth inhibition assay of fungal pathogens, Pc; assay type: cell-based; details: 48 h
Summary of the method: as §1

[3] = system: Collectotrichum graminicola (Cg); assay: Growth inhibition assay of fungal pathogens, Cg; assay type: cell-based; details: 48 h
Summary of the method: as §1

Septoria tritici (St) = assay: Growth inhibition assay of fungal pathogens, St; assay type: cell-based; details: Zymoseptoria tritici, 48 h
Summary of the method: as §1

human (hACC2) = human (hACC2) (Homo sapiens, UniProt O00763); assay: In vitro ACC inhibition assay (ADP-Glo), hACC2; assay type: biochemical; details: 5 nM ACC2, 20 μM ATP, 20 μM acetyl-CoA
human (hACC2), sequence (O00763 whole entry): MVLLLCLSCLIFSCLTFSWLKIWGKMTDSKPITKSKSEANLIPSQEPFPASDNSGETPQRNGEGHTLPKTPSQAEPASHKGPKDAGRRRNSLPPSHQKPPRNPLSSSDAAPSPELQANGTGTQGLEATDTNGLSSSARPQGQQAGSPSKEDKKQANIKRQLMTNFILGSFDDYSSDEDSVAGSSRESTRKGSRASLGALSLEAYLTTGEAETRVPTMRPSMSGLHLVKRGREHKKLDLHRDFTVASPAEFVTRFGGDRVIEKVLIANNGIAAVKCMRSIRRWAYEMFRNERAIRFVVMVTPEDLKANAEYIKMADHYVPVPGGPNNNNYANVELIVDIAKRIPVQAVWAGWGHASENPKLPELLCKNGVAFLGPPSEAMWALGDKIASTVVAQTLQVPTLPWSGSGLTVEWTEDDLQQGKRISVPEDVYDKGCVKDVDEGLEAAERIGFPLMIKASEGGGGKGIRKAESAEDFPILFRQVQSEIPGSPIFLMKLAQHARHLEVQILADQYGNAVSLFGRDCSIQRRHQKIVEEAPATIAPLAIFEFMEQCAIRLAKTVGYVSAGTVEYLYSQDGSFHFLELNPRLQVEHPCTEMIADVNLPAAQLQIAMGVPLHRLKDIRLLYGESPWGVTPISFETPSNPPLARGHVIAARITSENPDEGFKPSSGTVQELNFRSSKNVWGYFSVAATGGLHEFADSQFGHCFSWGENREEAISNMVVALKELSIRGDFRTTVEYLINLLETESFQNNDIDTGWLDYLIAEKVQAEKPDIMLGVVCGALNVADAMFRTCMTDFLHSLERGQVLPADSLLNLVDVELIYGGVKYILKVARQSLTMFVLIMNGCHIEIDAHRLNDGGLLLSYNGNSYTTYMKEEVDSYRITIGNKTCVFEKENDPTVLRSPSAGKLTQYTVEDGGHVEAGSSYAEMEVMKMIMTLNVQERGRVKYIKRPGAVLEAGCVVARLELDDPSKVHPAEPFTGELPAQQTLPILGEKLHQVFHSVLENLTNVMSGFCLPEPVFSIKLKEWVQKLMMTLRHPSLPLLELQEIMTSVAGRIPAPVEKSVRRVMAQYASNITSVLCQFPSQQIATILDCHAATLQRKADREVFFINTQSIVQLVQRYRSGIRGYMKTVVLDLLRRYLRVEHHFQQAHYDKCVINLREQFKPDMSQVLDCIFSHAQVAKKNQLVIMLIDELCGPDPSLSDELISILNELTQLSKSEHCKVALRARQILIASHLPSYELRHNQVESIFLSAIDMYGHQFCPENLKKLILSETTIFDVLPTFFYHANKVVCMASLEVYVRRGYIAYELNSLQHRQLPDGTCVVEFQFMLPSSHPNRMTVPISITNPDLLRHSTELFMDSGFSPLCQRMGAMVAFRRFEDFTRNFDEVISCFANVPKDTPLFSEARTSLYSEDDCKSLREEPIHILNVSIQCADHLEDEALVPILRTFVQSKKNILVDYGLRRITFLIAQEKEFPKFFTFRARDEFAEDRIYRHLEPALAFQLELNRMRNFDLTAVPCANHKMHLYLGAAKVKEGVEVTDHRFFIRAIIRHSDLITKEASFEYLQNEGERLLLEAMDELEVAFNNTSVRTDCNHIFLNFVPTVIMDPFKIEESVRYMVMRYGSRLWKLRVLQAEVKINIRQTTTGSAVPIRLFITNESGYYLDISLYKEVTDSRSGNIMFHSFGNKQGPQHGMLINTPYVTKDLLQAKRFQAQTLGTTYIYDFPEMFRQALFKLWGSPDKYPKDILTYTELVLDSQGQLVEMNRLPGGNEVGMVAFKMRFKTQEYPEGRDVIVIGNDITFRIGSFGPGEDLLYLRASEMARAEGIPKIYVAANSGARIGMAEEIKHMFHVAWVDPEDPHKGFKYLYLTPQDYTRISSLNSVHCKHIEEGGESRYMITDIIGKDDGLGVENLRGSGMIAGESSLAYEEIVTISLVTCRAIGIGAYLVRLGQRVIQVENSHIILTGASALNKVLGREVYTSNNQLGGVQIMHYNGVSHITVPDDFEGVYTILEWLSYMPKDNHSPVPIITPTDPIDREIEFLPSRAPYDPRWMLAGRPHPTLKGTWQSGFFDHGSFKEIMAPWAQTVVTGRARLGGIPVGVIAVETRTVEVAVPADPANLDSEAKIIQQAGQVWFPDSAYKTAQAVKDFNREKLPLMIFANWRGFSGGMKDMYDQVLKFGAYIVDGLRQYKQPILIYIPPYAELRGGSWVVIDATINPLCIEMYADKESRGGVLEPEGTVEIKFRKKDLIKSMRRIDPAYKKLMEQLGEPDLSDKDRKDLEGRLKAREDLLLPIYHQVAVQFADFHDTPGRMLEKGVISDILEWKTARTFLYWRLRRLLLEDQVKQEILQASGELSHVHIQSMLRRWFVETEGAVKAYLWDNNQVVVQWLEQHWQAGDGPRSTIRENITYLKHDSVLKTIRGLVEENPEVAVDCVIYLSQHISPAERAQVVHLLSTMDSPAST
Description: The detailed procedure is as follows. […] 10 μL ADP glo reagent was added. […] 20 μL kinase detection reagent was added.

fungal (fACC2) = fungal (fACC2) (UniProt Q00955); details: read-out: fACC2 (in vitro ACC2 Inhibition Assay, IC50), ADP-Glo, 5 nM ACC2, 20 μM ATP, 20 μM acetyl-CoA
fungal (fACC2), sequence (Q00955 whole entry): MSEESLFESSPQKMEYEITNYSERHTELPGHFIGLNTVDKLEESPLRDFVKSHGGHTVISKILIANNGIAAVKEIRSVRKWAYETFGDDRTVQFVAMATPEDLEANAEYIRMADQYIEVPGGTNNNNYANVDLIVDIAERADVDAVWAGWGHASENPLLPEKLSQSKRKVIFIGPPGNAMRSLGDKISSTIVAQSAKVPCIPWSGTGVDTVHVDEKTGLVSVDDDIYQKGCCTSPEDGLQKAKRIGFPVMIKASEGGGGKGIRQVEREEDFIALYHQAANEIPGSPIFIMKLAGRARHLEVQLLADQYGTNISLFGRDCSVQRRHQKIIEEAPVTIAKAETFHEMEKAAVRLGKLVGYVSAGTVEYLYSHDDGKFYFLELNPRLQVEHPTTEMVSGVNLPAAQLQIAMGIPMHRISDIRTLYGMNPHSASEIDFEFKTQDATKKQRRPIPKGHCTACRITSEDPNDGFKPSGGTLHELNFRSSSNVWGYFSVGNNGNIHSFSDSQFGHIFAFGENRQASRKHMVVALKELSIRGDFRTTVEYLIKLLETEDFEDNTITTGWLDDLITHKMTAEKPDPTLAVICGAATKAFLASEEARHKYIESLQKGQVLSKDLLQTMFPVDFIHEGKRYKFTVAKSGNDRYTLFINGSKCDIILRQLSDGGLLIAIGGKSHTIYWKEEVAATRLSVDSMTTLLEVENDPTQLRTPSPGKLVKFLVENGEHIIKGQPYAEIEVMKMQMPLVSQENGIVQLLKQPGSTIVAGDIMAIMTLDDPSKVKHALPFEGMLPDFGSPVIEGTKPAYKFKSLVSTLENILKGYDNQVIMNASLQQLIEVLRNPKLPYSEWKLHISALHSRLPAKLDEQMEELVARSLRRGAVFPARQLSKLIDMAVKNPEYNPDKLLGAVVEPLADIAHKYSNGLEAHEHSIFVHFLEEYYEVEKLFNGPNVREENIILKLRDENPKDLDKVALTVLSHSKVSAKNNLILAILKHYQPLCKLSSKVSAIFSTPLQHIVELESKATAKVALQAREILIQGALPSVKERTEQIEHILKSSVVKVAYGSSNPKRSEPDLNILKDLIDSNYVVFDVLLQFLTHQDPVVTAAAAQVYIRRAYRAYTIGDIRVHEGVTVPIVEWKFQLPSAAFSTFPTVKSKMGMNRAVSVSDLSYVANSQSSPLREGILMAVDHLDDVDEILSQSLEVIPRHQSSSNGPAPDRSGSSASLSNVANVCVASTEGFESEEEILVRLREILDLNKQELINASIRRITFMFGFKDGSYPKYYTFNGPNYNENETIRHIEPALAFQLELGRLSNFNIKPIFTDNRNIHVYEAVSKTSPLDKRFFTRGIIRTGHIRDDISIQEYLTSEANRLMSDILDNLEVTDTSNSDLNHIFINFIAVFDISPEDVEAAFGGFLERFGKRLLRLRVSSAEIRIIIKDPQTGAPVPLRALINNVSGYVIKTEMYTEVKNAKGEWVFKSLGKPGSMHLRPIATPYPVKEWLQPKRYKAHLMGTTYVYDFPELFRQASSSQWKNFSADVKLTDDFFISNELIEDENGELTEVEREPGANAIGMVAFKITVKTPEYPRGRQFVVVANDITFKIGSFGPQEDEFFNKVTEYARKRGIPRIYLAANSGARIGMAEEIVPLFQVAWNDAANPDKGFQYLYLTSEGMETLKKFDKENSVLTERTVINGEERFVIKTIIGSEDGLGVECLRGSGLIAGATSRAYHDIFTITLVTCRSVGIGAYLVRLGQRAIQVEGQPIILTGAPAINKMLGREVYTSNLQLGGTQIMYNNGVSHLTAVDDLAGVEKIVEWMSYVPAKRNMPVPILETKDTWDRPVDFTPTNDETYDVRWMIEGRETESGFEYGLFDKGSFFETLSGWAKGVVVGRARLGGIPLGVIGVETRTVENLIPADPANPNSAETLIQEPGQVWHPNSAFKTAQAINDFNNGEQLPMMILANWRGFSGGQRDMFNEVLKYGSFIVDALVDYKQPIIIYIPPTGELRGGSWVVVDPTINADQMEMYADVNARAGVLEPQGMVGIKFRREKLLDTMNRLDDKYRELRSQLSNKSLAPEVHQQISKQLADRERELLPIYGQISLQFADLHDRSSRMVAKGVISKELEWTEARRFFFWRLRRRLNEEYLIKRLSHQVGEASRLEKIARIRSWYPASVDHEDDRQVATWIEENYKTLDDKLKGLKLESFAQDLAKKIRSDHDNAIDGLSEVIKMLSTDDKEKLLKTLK

Rhizoctonia solani (Rs) = assay: Growth inhibition assay of fungal pathogens, Rs; assay type: cell-based; details: 48 h
Diplodia maydis (Dm) = assay: Growth inhibition assay of fungal pathogens, Dm; assay type: cell-based; details: Stenocarpella maydis, 48 h
Summary of the method: as §1

[4] = system: Fusarium moniliforme (Fm); assay: Growth inhibition assay of fungal pathogens, Fm; assay type: cell-based; details: for IC90: Fusarium verticillioides, 48 h, read-out: Concentration at 90% Inhibition Fm
Summary of the method: as §1

[5] = growth inhibition at 48 hours vs 2% DMSO control, read-out: Concentration at 90% Inhibition Fv
[6] = growth inhibition vs 2% DMSO control at 48 hours, read-out: Concentration at 90% Inhibition Fv
[7] = Table 3a, ATCC 22019, 3 replicates, MIC recorded at 48 h, read-out: MIC, C. parapsilosis ATCC 22019
[8] = Table 3b (additional results), ATCC 22019, 3 replicates, MIC recorded at 48 h, read-out: MIC, C. parapsilosis ATCC 22019
[9] = growth inhibition at 48 hours vs 2% DMSO control, read-out: Concentration at 90% Inhibition Pc
[10] = growth inhibition vs 2% DMSO control at 48 hours, read-out: Concentration at 90% Inhibition Pc
[11] = Collectotrichum graminicola, growth inhibition at 48 hours vs 2% DMSO control, read-out: Concentration at 90% Inhibition Cg
[12] = Collectotrichum graminicola, growth inhibition vs 2% DMSO control at 48 hours, read-out: Concentration at 90% Inhibition Cg
[13] = Septoria tritici, growth inhibition at 48 hours vs 2% DMSO control, read-out: Concentration at 90% Inhibition St
[14] = Septoria tritici, growth inhibition vs 2% DMSO control at 48 hours, read-out: Concentration at 90% Inhibition St
[15] = mycelial plugs, growth inhibition at 48 hours vs 2% DMSO control, read-out: Concentration at 90% Inhibition Rs
[16] = mycelial plugs, growth inhibition vs 2% DMSO control at 48 hours, read-out: Concentration at 90% Inhibition Rs
[17] = Diplodia maydis, growth inhibition at 48 hours vs 2% DMSO control, read-out: Concentration at 90% Inhibition Dm
[18] = Diplodia maydis, growth inhibition vs 2% DMSO control at 48 hours, read-out: Concentration at 90% Inhibition Dm
[19] = Fusarium moniliforme, growth inhibition at 48 hours vs 2% DMSO control
[20] = Fusarium moniliforme, growth inhibition vs 2% DMSO control at 48 hours

With COc1ccc(F)cc1[C@H](Cn1c(=O)n(C(C)(C)C(=O)N2CCCC2)c(=O)c2c(C)c(-n3nccn3)sc21)OCCN(C)C [Compound I-75, (R)-1-(2-(2-(dimethylamino)ethoxy)-2-(5-fluoro-2-methoxyphenyl)ethyl)-5-methyl-3-(2-methyl-1-oxo-1-(pyrrolidin-1-yl)propan-2-yl)-6-(2H-1,2,3-triazol-2-yl)thieno[2,3-d]pyrimidine-2,4(1H,3H)-dione] the IC90 [1, 5] was > 50 µg/mL, the IC90 [1, 6] was > 50 µg/mL and the MIC (C. parapsilosis; [7]) was 2.1 to 4 µg/mL (≈ 3.35 to 6.37 µM). The MIC (C. parapsilosis; [8]) was 1.01 to 2 µg/mL (≈ 1.61 to 3.19 µM), the IC90 [2, 9] was > 50 µg/mL and the IC90 [2, 10] was > 50 µg/mL. For the same compound, the IC90 [3, 11] was > 50 µg/mL, the IC90 [3, 12] was > 50 µg/mL and the IC90 (Septoria tritici (St); [13]) was > 50 µg/mL. For the same compound, the IC90 (Septoria tritici (St); [14]) was > 50 µg/mL, the pIC50 (human (hACC2); Table 2a) was < 7.40 and the pIC50 (human (hACC2); Table 2b, additional results) was < 7.40. The pIC50 (fungal (fACC2); Table 2a) was 8.30 to 9.00, the pIC50 (fungal (fACC2); Table 2b, additional results) was 8.30 to 9.00 and the IC90 (Rhizoctonia solani (Rs); [15]) was > 50 µg/mL. For the same compound, the IC90 (Rhizoctonia solani (Rs); [16]) was > 50 µg/mL, the IC90 (Diplodia maydis (Dm); [17]) was > 50 µg/mL and the IC90 (Diplodia maydis (Dm); [18]) was > 50 µg/mL. For the same compound, the IC90 [4, 19] was > 50 µg/mL and the IC90 [4, 20] was > 50 µg/mL.
With COc1ccc(F)cc1[C@H](Cn1c(=O)n(C(C)(C)C(=O)NC(C)C)c(=O)c2c(C)c(-n3nccn3)sc21)OCCN(C)C [Compound I-76, (R)-2-(1-(2-(2-(dimethylamino)ethoxy)-2-(5-fluoro-2-methoxyphenyl)ethyl)-5-methyl-2,4-dioxo-6-(2H-1,2,3-triazol-2-yl)-1,4-dihydro-thieno[2,3-d]pyrimidin-3(2H)-yl)-N-isopropyl-2-methylpropanamide] the IC90 ([1]; read-out: Concentration at 90% Inhibition Fv, Fusarium virguliforme, growth inhibition at 48 hours vs 2% DMSO control) was > 50 µg/mL, the IC90 ([1]; read-out: Concentration at 90% Inhibition Fv, Fusarium virguliforme, growth inhibition vs 2% DMSO control at 48 hours) was > 50 µg/mL and the MIC (C. parapsilosis; read-out: MIC, C. parapsilosis ATCC 22019, Table 3a, 3 replicates, MIC recorded at 48 h) was 2.1 to 4 µg/mL (≈ 3.41 to 6.5 µM). The MIC (C. parapsilosis; read-out: MIC, C. parapsilosis ATCC 22019, Table 3b (additional results), 3 replicates, MIC recorded at 48 h) was 0.25 to 1 µg/mL (≈ 0.406 to 1.62 µM), the IC90 ([2]; read-out: Concentration at 90% Inhibition Pc, Phytophthora capsici, growth inhibition at 48 hours vs 2% DMSO control) was > 50 µg/mL and the IC90 ([2]; read-out: Concentration at 90% Inhibition Pc, Phytophthora capsici, growth inhibition vs 2% DMSO control at 48 hours) was > 50 µg/mL. The IC90 ([3]; read-out: Concentration at 90% Inhibition Cg, Collectotrichum graminicola, growth inhibition at 48 hours vs 2% DMSO control) was > 50 µg/mL, the IC90 ([3]; read-out: Concentration at 90% Inhibition Cg, Collectotrichum graminicola, growth inhibition vs 2% DMSO control at 48 hours) was > 50 µg/mL and the IC90 (Septoria tritici (St); read-out: Concentration at 90% Inhibition St, Septoria tritici, growth inhibition at 48 hours vs 2% DMSO control) was > 50 µg/mL. For the same compound, the IC90 (Septoria tritici (St); read-out: Concentration at 90% Inhibition St, Septoria tritici, growth inhibition vs 2% DMSO control at 48 hours) was > 50 µg/mL, the pIC50 (human (hACC2); Table 2a) was < 7.40 and the pIC50 (human (hACC2); Table 2b, additional results) was < 7.40. It also gave a pIC50 (fungal (fACC2); Table 2a) of 8.30 to 9.00, a pIC50 (fungal (fACC2); Table 2b, additional results) of 8.30 to 9.00 and an IC90 (Rhizoctonia solani (Rs); read-out: Concentration at 90% Inhibition Rs, Rhizoctonia solani, mycelial plugs, growth inhibition at 48 hours vs 2% DMSO control) of 10 µg/mL (≈ 16.2 µM). The IC90 (Rhizoctonia solani (Rs); read-out: Concentration at 90% Inhibition Rs, Rhizoctonia solani, mycelial plugs, growth inhibition vs 2% DMSO control at 48 hours) was > 50 µg/mL, the IC90 (Diplodia maydis (Dm); read-out: Concentration at 90% Inhibition Dm, Diplodia maydis, growth inhibition at 48 hours vs 2% DMSO control) was > 50 µg/mL and the IC90 (Diplodia maydis (Dm); read-out: Concentration at 90% Inhibition Dm, Diplodia maydis, growth inhibition vs 2% DMSO control at 48 hours) was > 50 µg/mL. The “Concentration at 90% Inhibition Fm” value [4, 19] was “D (compound concentration of >50 ppm at 90% inhibition of fungal pathogens)” and the IC90 [4] was > 50 µg/mL.
COc1ccc(F)cc1[C@H](Cn1c(=O)n([C@@H](C)C(=O)NC2CCC2)c(=O)c2c(C)c(-n3nccn3)sc21)OCCO [Compound I-77, (S)—N-cyclobutyl-2-(1-((R)-2-(5-fluoro-2-methoxyphenyl)-2-(2-hydroxyethoxy)ethyl)-5-methyl-2,4-dioxo-6-(2H-1,2,3-triazol-2-yl)-1,4-dihydrothieno[2,3-d]pyrimidin-3(2H)-yl)propanamide] showed an IC90 [1, 5] of 0.4 µg/mL (≈ 0.682 µM), an IC90 [1, 6] of 0.4 µg/mL (≈ 0.682 µM) and an MIC (C. parapsilosis; [7]) of 1.1 to 2 µg/mL (≈ 1.88 to 3.41 µM). The MIC (C. parapsilosis; [8]) was 0.25 to 1 µg/mL (≈ 0.426 to 1.7 µM), the IC90 [2, 9] was > 50 µg/mL and the IC90 [2, 10] was > 50 µg/mL. The IC90 [3, 11] was 2 µg/mL (≈ 3.41 µM), the IC90 [3, 12] was 10 µg/mL (≈ 17 µM) and the IC90 (Septoria tritici (St); [13]) was > 50 µg/mL. For the same compound, the IC90 (Septoria tritici (St); [14]) was > 50 µg/mL, the pIC50 (human (hACC2); Table 2a) was 7.40 to 8.00 and the pIC50 (human (hACC2); Table 2b, additional results) was 7.40 to 8.00. It also gave a pIC50 (fungal (fACC2); Table 2a) of 8.30 to 9.00, a pIC50 (fungal (fACC2); Table 2b, additional results) of 8.30 to 9.00 and an IC90 (Rhizoctonia solani (Rs); [15]) of 2 µg/mL (≈ 3.41 µM). The IC90 (Rhizoctonia solani (Rs); [16]) was 2 µg/mL (≈ 3.41 µM), the IC90 (Diplodia maydis (Dm); [17]) was 2 µg/mL (≈ 3.41 µM) and the IC90 (Diplodia maydis (Dm); [18]) was 2 µg/mL (≈ 3.41 µM). It also gave an IC90 [4, 19] of 0.08 µg/mL (≈ 0.136 µM) and an IC90 [4, 20] of 0.08 µg/mL (≈ 0.136 µM).
